# Test results published in paper PMC10287566, “Signaling-specific inhibition of the CB1 receptor for cannabis use disorder: phase 1 and phase 2a randomized trials” (Nature Medicine, 2023).
# Where two headings read alike, the source gives them in different places.
# What was measured:
# [1] = Plasma and brain pharmacokinetics of oral AEF0117 in mice; type: in vivo; details: mouse; for Kp: brain/plasma
# Protocol: Blood samples were centrifuged within 15 min after collection (~7 min at 1,600g and 4 °C) to obtain plasma. The brain was also harvested, weighed and frozen on dry ice. Plasma and brains were stored below −70 °C until analysis.
# [2] = target: T1, hCB1 point mutant p.E1.49G (Homo sapiens, UniProt P21554, E133G); assay: THC-induced decrease in cellular respiration, HEK293 cells with mutant hCB1; type: cell-based; details: HEK293, hCB1 p.E1.49G, THC 1 µM
# T1 construct: expressed in transfected cells; host or cells: HEK293
# Protocol: After 15 min of incubation, THC (1 µM, dissolved in ethanol 0.0034%) or vehicle was added in the culture dishes for 30 min.
# Cellular respiration was measured in a calibrated oxygraph (Oxygraph-2k, Oroboros Instruments) equipped with a Clark electrode and DatLab software. Oxygen consumption (OC) rate was used to measure cellular respiration.
# [3] = tested on: healthy volunteers; assay: Phase 1 multiple-ascending-dose (MAD) study, safety
# Protocol: Four single oral dose levels (0.2, 0.6, 2 and 6 mg) were given in the morning on day 1 in the SAD study, and three oral doses (0.6, 2 and 6 mg) were given in the morning of day 1 to day 7 in the MAD study, to independent dose cohorts. […] Each dose cohort comprised eight volunteers (six (5/1) active and two (1/1) placebo per dose level).
# In the MAD study, each randomized participant received a single oral dose per day on days 1 through 7. […] As an approximation, plasma PK concentrations and parameters were presented for all participants as if occurring on day 7.
# Participants were admitted to the research clinic at midday before dosing (day −1). In the SAD study, they remained in-house until day 8 for PK and PD samples and safety assessments. In the MAD study, participants remained in-house until day 14 and returned to the research facility on an outpatient basis to have PK and safety assessments at 216 h and 264 h (day 16 and day 18) after their last dose (day 7). Safety monitoring (physical examinations, vital sign measurements, 12-lead ECGs, clinical safety laboratory tests and AE monitoring) were performed throughout the studies. Psychometrics tests (Bond & Lader VAS, Addiction Research Center Inventory (49-item short form) (ARCI-49) and Profile of Mood States 65 self-report items (POMS-65)) and the Columbia-Suicide Severity Rating Scale (C-SSRS) test were performed at baseline, before dose and at 4 h and 24 h after dose on day 1 and day 7 (MAD study, only) and C-SSRS only at 24 h.
# All participants who had AEs, whether considered associated with the use of the investigational product or not, were monitored for as long as needed to determine resolution.
# [4] = tested on: healthy volunteers; type: in vivo, human; details: SAD
# [5] = Phase 2a study, plasma pharmacokinetics; type: in vivo, human; details: for Cmax: human, plasma, in the range predicted from animal data
# Protocol: THC and its metabolites (11-OH-THC and 11-COOH-THC) were assessed at the same timepoints. […] THC and its metabolites analyses were performed using PD dataset (n = 13 for both doses).
# PK parameters for AEF0117 were subject to descriptive statistics separately for each treatment group.
# [6] = target: human CB1 (Homo sapiens, UniProt P21554); assay: THC-induced decrease in cAMP in CHO-hCB1 cells; type: cell-based; parameters: host or cells: CHO-K1
# Protocol: CHO cells stably expressing the human CB1 receptor (CHO-hCB1) were used in these experiments (ES-110C, PerkinElmer).
# CHO-hCB1 cells were treated by concomitantly adding THC and the test compound for 45 min. Forskolin (2.5 µM) was also simultaneously added in all the conditions tested to sustain cAMP basal level. At the end of the treatment, cells were lysed for cAMP quantification. All measures were performed in triplicate in one experiment.
# The quantitative determination of cAMP was done using a competitive fluorescence immunoassay. Data were expressed as % of Δ fluorescence (ΔF) that was calculated as follows: ΔF% = (sample fluorescence − negative control fluorescence) / negative control fluorescence. These experiments were done by the CRO Fluofarma.
# [7] = both sexes, CD-1 Swiss, plasma, mice po 0.3 mg/kg single
# [8] = both sexes, CD-1 Swiss, plasma, mice po 4 mg/kg single
# [9] = both sexes, CD-1 Swiss, plasma, mice po 10 mg/kg single
# T1 sequence (P21554 whole entry E133G): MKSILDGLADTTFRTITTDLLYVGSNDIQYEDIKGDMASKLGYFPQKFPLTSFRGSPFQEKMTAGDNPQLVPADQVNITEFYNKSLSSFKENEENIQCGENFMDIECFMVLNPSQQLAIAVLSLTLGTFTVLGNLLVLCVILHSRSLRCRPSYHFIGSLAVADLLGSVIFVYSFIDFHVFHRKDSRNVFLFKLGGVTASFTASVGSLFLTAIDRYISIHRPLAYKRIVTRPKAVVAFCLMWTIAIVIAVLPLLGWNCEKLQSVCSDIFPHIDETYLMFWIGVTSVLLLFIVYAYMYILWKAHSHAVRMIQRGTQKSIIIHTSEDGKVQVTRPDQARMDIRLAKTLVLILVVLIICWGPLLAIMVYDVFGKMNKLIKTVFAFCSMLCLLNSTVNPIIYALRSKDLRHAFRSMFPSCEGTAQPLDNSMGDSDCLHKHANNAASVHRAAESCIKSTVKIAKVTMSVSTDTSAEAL
# human CB1, sequence (P21554 whole entry): as the sequence (P21554 whole entry E133G) above, with G133E counted along it
compound,measurement,setting,value
"COc1ccc(CO[C@H]2CC[C@@]3(C)C(=CC[C@H]4[C@@H]5CC[C@H](C(C)=O)[C@@]5(C)CC[C@@H]43)C2)cc1 [AEF0117, 3β-(4-methoxybenzyloxy)pregn-5-en-20-one]",Tmax,"[1]; CD-1 Swiss (mice), Sprague Dawley (rats), brain, oral, mice and rats, read-out: tmax in the brain",7 h
same,Kp,"[1]; CD-1 Swiss (mice), Sprague Dawley (rats), po, mice and rats, oral, corn oil, read-out: brain/plasma concentration AUC ratio",> 4
same,Tmax,"[1]; CD-1 Swiss (mice), Sprague Dawley (rats), Beagle (dogs), plasma, po, mice, rats and dogs, single per os, read-out: tmax",~3 h
same,Kp,"[1]; both sexes, CD-1 Swiss, oral, 0.3 mg/kg, read-out: AUClast brain/plasma ratio",7.3
same,half-life,"[1]; both sexes, CD-1 Swiss, plasma, po, mice per os, read-out: half-life",10.1 to 25.6 h
same,AUC(0-t),[1]; [7],252 ng·h/mL
same,Cmax,[1]; [7],35.5 ng/mL
same,Tmax,"[1]; both sexes, CD-1 Swiss, plasma, mice po 0.3 mg/kg single, read-out: tmax",2.5 h
same,half-life,"[1]; both sexes, CD-1 Swiss, plasma, mice po 0.3 mg/kg single, read-out: t½ (converted)",17.8 h
same,AUC(0-t),[1]; [8],3730 ng·h/mL
same,Cmax,[1]; [8],490 ng/mL
same,Tmax,"[1]; both sexes, CD-1 Swiss, plasma, mice po 4 mg/kg single, read-out: tmax",2.25 h
same,half-life,"[1]; both sexes, CD-1 Swiss, plasma, mice po 4 mg/kg single, read-out: t½ (converted)",18.3 h
same,AUC(0-t),[1]; [9],11300 ng·h/mL
same,Cmax,[1]; [9],1790 ng/mL
same,Tmax,"[1]; both sexes, CD-1 Swiss, plasma, mice po 10 mg/kg single, read-out: tmax",2.25 h
same,half-life,"[1]; both sexes, CD-1 Swiss, plasma, mice po 10 mg/kg single, read-out: t½ (converted)",18.2 h
same,Tmax,"[1]; both sexes, CD-1 Swiss, plasma, mice, oral, corn oil, read-out: Tmax",3 h
same,effect on cellular respiration with mutant hCB1,[2],loss of effect
same,Number of TEAEs,[3]; 0.6 mg/d 7 d,7 E
same,Number of participants with a TEAE leading to discontinuation,[3]; 0.6 mg/d 7 d,1 (16.7) n (%)
same,Number of participants with an SAE,[3]; 0.6 mg/d 7 d,0 n (%)
same,Number of participants with at least one TEAE,[3]; 0.6 mg/d 7 d,3 (50.0) n (%)
same,Participants with TEAE: Mild,[3]; 0.6 mg/d 7 d,2 (33.3) n (%)
same,Participants with TEAE: Moderate,[3]; 0.6 mg/d 7 d,1 (16.7) n (%)
same,Participants with TEAE: Not related,[3]; 0.6 mg/d 7 d,1 (16.7) n (%)
same,Participants with TEAE: Related,[3]; 0.6 mg/d 7 d,3 (50.0) n (%)
same,Participants with TEAE: Severe,[3]; 0.6 mg/d 7 d,0 n (%)
same,TEAEs by SOC: Eye disorder,[3]; 0.6 mg/d 7 d,0 n (%)
same,TEAEs by SOC: Gastrointestinal disorders,[3]; 0.6 mg/d 7 d,0 n (%)
same,TEAEs by SOC: General disorders and administration site conditions,[3]; 0.6 mg/d 7 d,1 (16.7) n (%)
same,TEAEs by SOC: Investigations,[3]; 0.6 mg/d 7 d,0 n (%)
same,TEAEs by SOC: Metabolism and nutrition disorders,[3]; 0.6 mg/d 7 d,1 (16.7) n (%)
same,TEAEs by SOC: Nervous system disorders,[3]; 0.6 mg/d 7 d,2 (33.3) n (%)
same,TEAEs by SOC: Skin and subcutaneous tissue disorders,[3]; 0.6 mg/d 7 d,1 (16.7) n (%)
same,Number of TEAEs,[3]; 2 mg/d 7 d,3 E
same,Number of participants with a TEAE leading to discontinuation,[3]; 2 mg/d 7 d,0 n (%)
same,Number of participants with an SAE,[3]; 2 mg/d 7 d,0 n (%)
same,Number of participants with at least one TEAE,[3]; 2 mg/d 7 d,2 (33.3) n (%)
same,Participants with TEAE: Mild,[3]; 2 mg/d 7 d,2 (33.3) n (%)
same,Participants with TEAE: Moderate,[3]; 2 mg/d 7 d,0 n (%)
same,Participants with TEAE: Not related,[3]; 2 mg/d 7 d,1 (16.7) n (%)
same,Participants with TEAE: Severe,[3]; 2 mg/d 7 d,0 n (%)
same,TEAEs by SOC: Eye disorder,[3]; 2 mg/d 7 d,0 n (%)
same,TEAEs by SOC: Gastrointestinal disorders,[3]; 2 mg/d 7 d,1 (16.7) n (%)
same,TEAEs by SOC: General disorders and administration site conditions,[3]; 2 mg/d 7 d,0 n (%)
same,TEAEs by SOC: Investigations,[3]; 2 mg/d 7 d,1 (16.7) n (%)
same,TEAEs by SOC: Metabolism and nutrition disorders,[3]; 2 mg/d 7 d,0 n (%)
same,TEAEs by SOC: Nervous system disorders,[3]; 2 mg/d 7 d,0 n (%)
same,TEAEs by SOC: Skin and subcutaneous tissue disorders,[3]; 2 mg/d 7 d,0 n (%)
same,Number of TEAEs,[3]; 6 mg/d 7 d,6 E
same,Number of participants with a TEAE leading to discontinuation,[3]; 6 mg/d 7 d,0 n (%)
same,Number of participants with an SAE,[3]; 6 mg/d 7 d,0 n (%)
same,Number of participants with at least one TEAE,[3]; 6 mg/d 7 d,2 (33.3) n (%)
same,Participants with TEAE: Mild,[3]; 6 mg/d 7 d,2 (33.3) n (%)
same,Participants with TEAE: Moderate,[3]; 6 mg/d 7 d,1 (16.7) n (%)
same,Participants with TEAE: Not related,[3]; 6 mg/d 7 d,2 (33.3) n (%)
same,Participants with TEAE: Related,[3]; 6 mg/d 7 d,2 (33.3) n (%)
same,Participants with TEAE: Severe,[3]; 6 mg/d 7 d,0 n (%)
same,TEAEs by SOC: Eye disorder,[3]; 6 mg/d 7 d,1 (16.7) n (%)
same,TEAEs by SOC: Gastrointestinal disorders,[3]; 6 mg/d 7 d,0 n (%)
same,TEAEs by SOC: General disorders and administration site conditions,[3]; 6 mg/d 7 d,1 (16.7) n (%)
same,TEAEs by SOC: Investigations,[3]; 6 mg/d 7 d,0 n (%)
same,TEAEs by SOC: Metabolism and nutrition disorders,[3]; 6 mg/d 7 d,0 n (%)
same,TEAEs by SOC: Nervous system disorders,[3]; 6 mg/d 7 d,2 (33.3) n (%)
same,TEAEs by SOC: Skin and subcutaneous tissue disorders,[3]; 6 mg/d 7 d,1 (16.7) n (%)
same,ARCI 49 sub-scores,[4]; 0.2-6 mg vs placebo,No relevant trend
same,"Bond and Lader VAS (alertness, contentedness, calmness)",[4]; 0.2-6 mg vs placebo,No clinically relevant differences
same,POMS 65 sub-scales,[4]; 0.2-6 mg vs placebo,No relevant trend
same,C-SSRS: number of subjects with suicidal ideation or behavior,"[4]; all doses 0.2-6 mg, Day 1 and Day 2",0 n (%)
same,plasma concentration below LLOQ after washout,"[5]; 0.06 mg first, >=14 d later, 3 participants",0.0002 to 0.0093 ng/mL
same,mean concentration 24 h after 5th dose higher than 24 h after 1st dose,"[5]; Phase 2a, 0.06 and 1 mg",30-50%
same,Cmax,[5]; 0.06 mg,≥ 0.15 ng/mL
same,Cmax,[5]; 1 mg,≥ 1.5 ng/mL
same,effect on THC's effects on cAMP,[6],without modifying
